Test results published in ChEMBL document CHEMBL1133119, “Synthesis of apicidin-derived quinolone derivatives: parasite-selective histone deacetylase inhibitors and antiproliferative agents” (J Med Chem, 2000).
Converted amounts (≈) assume the structure as drawn.

Assays:
[1] = target: Histone deacetylase (Eimeria tenella); experiment: Displacement of [3H]-Apicidin A from Histone deacetylase of Eimeria tenella extract
HeLa = experiment: Tested for mammalian cell (HeLa)-based antiproliferative assay; format: functional, Homo sapiens
Histone deacetylase [2] = experiment: Inhibition of [3H]-Apicidin A binding to Histone deacetylase of chick liver extract; set-up: species or system Gallus gallus
[3] = Tested for parasite (malaria)-based antiproliferative assay; format: functional
Histone deacetylase [4] = experiment: Tested for Histone deacetylase enzyme inhibition assay using mammalian cell nuclear extract (HeLa); format: protein assay, Homo sapiens
[5] = Tested for parasite (malaria)-based antiproliferative assay; ND means no data; format: functional

Compound | IC50 [1] [µM] | AP50 (HeLa) [ng/mL] | IC50 (Histone deacetylase [2]) [µg/mL] | IC50 [3] [µg/mL] | IC50 (Histone deacetylase [4]) [µM] | IC50 [5] [µg/mL]
CCC(=O)CCCCC[C@@H]1NC(=O)[C@H]2CCCCN2C(=O)[C@H]([C@@H](C)CC)NC(=O)[C@H](c2cnc3ccccc3c2O)NC1=O | 0.0247 | >10000 | 1 (≈ 1.65 µM) | 0.04 (≈ 0.0658 µM) | – | –
CCCn1cc([C@@H]2NC(=O)[C@H](CCCCCC(=O)CC)NC(=O)[C@H]3CCCCN3C(=O)[C@H]([C@@H](C)CC)NC2=O)c(=O)c2ccccc21 [listing 1 of 2 here] | 0.192 | – | 0.7 (≈ 1.08 µM) | 0.44 (≈ 0.677 µM) | 0.23 | –
CCC(=O)CCCCC[C@@H]1NC(=O)[C@H]2CCCCN2C(=O)[C@H]([C@@H](C)CC)NC(=O)[C@H](Cc2cn(CC)c3ccccc23)NC1=O | 0.161 | – | 0.01 (≈ 0.0161 µM) | 0.18 (≈ 0.289 µM) | – | –
CCC(=O)CCCCC[C@@H]1NC(=O)[C@H]2CCCCN2C(=O)[C@H]([C@@H](C)CC)NC(=O)[C@H](c2cn(C)c3ccccc3c2=O)NC1=O [listing 1 of 2 here] | – | >10000 | – | – | – | –
CCCn1cc(C[C@@H]2NC(=O)[C@H](CCCCCC(=O)CC)NC(=O)[C@H]3CCCCN3C(=O)[C@H]([C@@H](C)CC)NC2=O)c2ccccc21 [listing 1 of 2 here] | – | 625 | – | – | – | –
CCC(=O)CCCCC[C@@H]1NC(=O)[C@H]2CCCCN2C(=O)[C@H]([C@@H](C)CC)NC(=O)[C@H](Cc2cn(C)c3ccccc23)NC1=O | 0.0197 | 225 | 0.005 (≈ 0.00823 µM) | 0.02 (≈ 0.0329 µM) | – | –
CCC(=O)CCCCC[C@@H]1NC(=O)[C@H]2CCCCN2C(=O)[C@H]([C@@H](C)CC)NC(=O)[C@H](Cc2cn(OC)c3ccccc23)NC1=O [APICIDIN] | – | 78 | – | 0.057 (≈ 0.0914 µM) | – | –
CCC(=O)CCCCC[C@@H]1NC(=O)[C@H]2CCCCN2C(=O)[C@H]([C@@H](C)CC)NC(=O)[C@H](c2cn(CC(=O)O)c3ccccc3c2=O)NC1=O [listing 1 of 2 here] | – | >10000 | – | – | – | –
CCCn1cc(C[C@@H]2NC(=O)[C@H](CCCCCC(=O)CC)NC(=O)[C@H]3CCCCN3C(=O)[C@H]([C@@H](C)CC)NC2=O)c2ccccc21 [listing 2 of 2 here] | 0.0472 | – | 0.01 (≈ 0.0157 µM) | 0.25 (≈ 0.393 µM) | – | –
CCC(=O)CCCCC[C@@H]1NC(=O)[C@H]2CCCCN2C(=O)[C@H]([C@@H](C)CC)NC(=O)[C@H](c2cn(CC(=O)OC)c3ccccc3c2=O)NC1=O [listing 1 of 2 here] | 0.441 | – | 2 (≈ 2.94 µM) | 0.79 (≈ 1.16 µM) | – | –
CCC(=O)CCCCC[C@@H]1NC(=O)[C@H]2CCCCN2C(=O)[C@H]([C@@H](C)CC)NC(=O)[C@H](Cc2cn(CC(=O)O)c3ccccc23)NC1=O | 0.0997 | – | 0.065 (≈ 0.0997 µM) | – | – | 1 (≈ 1.53 µM)
CCC(=O)CCCCC[C@@H]1NC(=O)[C@H]2CCCCN2C(=O)[C@H]([C@@H](C)CC)NC(=O)[C@H](Cc2cn(CC(=O)OC)c3ccccc23)NC1=O [listing 1 of 2 here] | 0.0105 | – | 0.005 (≈ 0.00751 µM) | 0.25 (≈ 0.375 µM) | – | –
CCC(=O)CCCCC[C@@H]1NC(=O)[C@H]2CCCCN2C(=O)[C@H]([C@@H](C)CC)NC(=O)[C@H](c2cn(CC(=O)OC)c3ccccc3c2=O)NC1=O [listing 2 of 2 here] | – | >10000 | – | – | – | –
CCC(=O)CCCCC[C@@H]1NC(=O)[C@H]2CCCCN2C(=O)[C@H]([C@@H](C)CC)NC(=O)[C@H](c2cn(C)c3ccccc3c2=O)NC1=O [listing 2 of 2 here] | 0.0965 | – | 1 (≈ 1.61 µM) | 0.117 (≈ 0.188 µM) | 0.241 | –
CCC(=O)CCCCC[C@@H]1NC(=O)[C@H]2CCCCN2C(=O)[C@H]([C@@H](C)CC)NC(=O)[C@H](c2cn(CC(=O)O)c3ccccc3c2=O)NC1=O [listing 2 of 2 here] | 3 | – | 5 (≈ 7.51 µM) | 0.55 (≈ 0.826 µM) | – | –
CCC(=O)CCCCC[C@@H]1NC(=O)[C@H]2CCCCN2C(=O)[C@H]([C@@H](C)CC)NC(=O)[C@H](c2cn(OC)c3ccccc3c2=O)NC1=O | 0.0627 | 10000 | 1 (≈ 1.57 µM) | 0.04 (≈ 0.0627 µM) | 0.086 | –
CCC(=O)CCCCC[C@@H]1NC(=O)[C@H]2CCCCN2C(=O)[C@H]([C@@H](C)CC)NC(=O)[C@H](c2cn(CC)c3ccccc3c2=O)NC1=O | 0.11 | >10000 | 2 (≈ 3.15 µM) | 0.24 (≈ 0.377 µM) | 0.33 | –
CCCn1cc([C@@H]2NC(=O)[C@H](CCCCCC(=O)CC)NC(=O)[C@H]3CCCCN3C(=O)[C@H]([C@@H](C)CC)NC2=O)c(=O)c2ccccc21 [listing 2 of 2 here] | – | >10000 | – | – | – | –
CCC(=O)CCCCC[C@@H]1NC(=O)[C@H]2CCCCN2C(=O)[C@H]([C@@H](C)CC)NC(=O)[C@H](Cc2cn(CC(=O)OC)c3ccccc23)NC1=O [listing 2 of 2 here] | – | 150 | – | – | – | –
